From patent publication US11046651B2, “Piperazine substituted azapine derivatives and uses thereof” (Alairion, Inc., priority 2019, dated 2021)

Assays:
H1 = H1 (Homo sapiens (Human), UniProt P35367); assay: H1 binding assay ([3H]pyrilamine, HEK293 stable cell line membranes)
Experimental: Example 25. H1 and 5-HT2A Binding Assay Protocol
(§1) The testing compounds were diluted with DMSO, starting at 2 mM, with 8-points and 5-fold serial dilutions. Ketanserin and Pyrilamine were diluted with DMSO, starting at 0.2 mM, with 8-points and 5-fold serial dilution.
(§2) 1 μl of a compounds of the present disclosure and either reference compound (Table C) were transferred to assay plates. 1 μl of 0.2 mM Ketanserin or Pyrilamine was transferred to an assay plate according to the plate map for nonspecific binding (Low control: LC). 1 μl of DMSO was transferred to an assay plate according to plate map for total binding (High control: HC).
(§3) 100 μlof membrane stocks were dispensed into the plates, following the plate map. 100 of radio ligand was added. The plates were sealed and shaken at 300 rpm at room temperature for 1 hour. The Unifilter-96 GF/C filter plates were soaked with 50 of 0.3% PEI per well for at least 0.5 hour at room temperature.
(§4) When the binding assays were complete, the reaction mixture was filtered through GF/C plates using Perkin Elmer Filtermate Harvester, and then each plate was washed 4 times with cold wash buffer. The filter plates were dried for 1 hour at 50 degrees. After drying, the bottom of the filter plate wells were sealed using Perkin Elmer Unifilter-96 backing seal tape. 50 μl of Perkin Elmer Microscint 20 cocktail was added. The top of the filter plates were sealed with Perkin Elmer TopSeal-A sealing film.
(§5) ^3H trapped on filters were counted using Perkin Elmer MicroBeta2 Reader. Inhibition constants were calculated using the following equation:
(§6) [formula] The data was analyzed using Prism 5. The model used was “log(inhibitor) vs. response—Variable slope” to fit the data and calculate IC50. The IC50 was then converted to Ki using following equation: Ki=IC50/(1+L/Kd). L is the radioligand concentration in the reaction system; Kd is the affinity of radioligand to the receptor.

5-HT2A = 5-HT2A (Homo sapiens (Human), UniProt P28223); assay: 5-HT2A binding assay ([3H]-Ketanserin, HEK293 stable cell line membranes)
5-HT2A, sequence (P28223 whole entry, species assumed): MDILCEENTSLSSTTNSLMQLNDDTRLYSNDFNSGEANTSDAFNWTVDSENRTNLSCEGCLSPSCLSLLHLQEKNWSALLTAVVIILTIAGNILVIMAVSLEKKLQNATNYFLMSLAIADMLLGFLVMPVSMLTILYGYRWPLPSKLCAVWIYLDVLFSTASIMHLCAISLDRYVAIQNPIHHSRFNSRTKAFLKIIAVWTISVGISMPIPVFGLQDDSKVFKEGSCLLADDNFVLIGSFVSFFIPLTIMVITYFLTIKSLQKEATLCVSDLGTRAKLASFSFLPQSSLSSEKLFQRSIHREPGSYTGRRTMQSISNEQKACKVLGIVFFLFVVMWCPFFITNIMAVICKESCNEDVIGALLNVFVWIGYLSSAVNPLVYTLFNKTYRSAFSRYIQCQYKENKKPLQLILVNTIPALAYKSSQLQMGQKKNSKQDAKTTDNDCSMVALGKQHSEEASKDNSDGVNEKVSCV
Experimental: H1 and 5-HT2A Binding Assay Protocol
as §1, §2, §3, §4, §5, §6

5-HT2C = 5-HT2C (Homo sapiens (Human), UniProt P28335); assay: 5-HT2C binding assay ([3H]-Mesulergine, HEK293 membranes); details: Table L, class symbols
5-HT2C, sequence (P28335 33-458): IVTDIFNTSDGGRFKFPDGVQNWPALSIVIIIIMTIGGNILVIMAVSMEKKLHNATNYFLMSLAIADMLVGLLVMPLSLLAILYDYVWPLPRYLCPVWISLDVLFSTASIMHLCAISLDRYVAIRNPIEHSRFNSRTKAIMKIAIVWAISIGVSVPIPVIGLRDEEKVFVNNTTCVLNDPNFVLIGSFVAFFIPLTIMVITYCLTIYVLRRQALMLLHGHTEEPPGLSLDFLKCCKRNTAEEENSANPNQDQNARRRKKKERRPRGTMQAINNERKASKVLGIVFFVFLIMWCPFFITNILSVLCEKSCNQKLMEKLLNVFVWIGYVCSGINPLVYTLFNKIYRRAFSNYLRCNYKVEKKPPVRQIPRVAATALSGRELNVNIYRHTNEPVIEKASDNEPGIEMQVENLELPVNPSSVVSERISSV
Experimental: 5-HT2C Binding Assay Protocol
The testing compounds were diluted with DMSO, starting at 2 mM, with 8-points and 5-fold serial dilutions.
1 μL of a compound of the present disclosure the reference compound (Table J) was transferred to an assay plate. […] 1 μL of DMSO was transferred to an assay plate according to the plate map for total binding (High control: HC).
as §4, with “Unifilter-96 GF/C filter plates were soaked with 50 μL of 0.3% PEI per well for about 0.5 hours at room temperature. When” for “When”, “through the” for “through”, “GF/C filter” for “GF/C”, “and” for “and then”, “50° C.” for “50 degrees.”, “μL” for “μl”
as §5
[formula] The data was analyzed using Prism 5. The model used was “log(inhibitor) vs. response—Variable slope” to fit the data and calculate IC50. The IC50 was then converted to Ki using the following equation: Ki=IC50/(1+L/Kd), wherein L is the radioligand concentration in the reaction system; Kd is the affinity of radioligand to the receptor.

H1, sequence (P35367 whole entry): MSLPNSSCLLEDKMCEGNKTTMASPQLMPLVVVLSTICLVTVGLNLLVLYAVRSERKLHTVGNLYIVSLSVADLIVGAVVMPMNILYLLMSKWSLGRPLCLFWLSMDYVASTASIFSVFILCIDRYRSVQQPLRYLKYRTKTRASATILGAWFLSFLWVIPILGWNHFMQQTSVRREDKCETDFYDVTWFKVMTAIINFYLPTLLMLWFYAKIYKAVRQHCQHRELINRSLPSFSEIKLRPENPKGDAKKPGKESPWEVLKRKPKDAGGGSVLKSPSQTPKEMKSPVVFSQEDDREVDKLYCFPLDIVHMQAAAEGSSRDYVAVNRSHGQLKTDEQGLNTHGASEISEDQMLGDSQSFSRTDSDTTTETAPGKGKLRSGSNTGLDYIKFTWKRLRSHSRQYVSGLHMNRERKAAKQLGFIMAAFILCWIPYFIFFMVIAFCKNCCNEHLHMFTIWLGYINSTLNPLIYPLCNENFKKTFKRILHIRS

Row | Compound | Ki (H1; numeric values) | Ki (5-HT2A; numeric values) | Ki (H1; Table E, class symbols) | Ki (5-HT2A; Table F, class symbols) | Ki (5-HT2C)
1 | CC(CN1CCN(C2=Nc3ccccc3Cc3ccccc32)CC1)C(=O)O (stereo not shown) [A-1, 3-(4-(11H-dibenzo[b,e]azepin-6-yl)piperazin-1-yl)-2-methylpropanoic acid, reference compound] | 104 nM | 1380 nM |  |  | 
2 | Cc1ccc2c(c1)Oc1cc(Cl)ccc1N=C2N1CCN(CC(C)(C)C(=O)O)CC1 [Compound No. 1, 3-(4-(7-chloro-3-methyldibenzo[b,f][1,4]oxazepin-11-yl)piperazin-1-yl)-2,2-dimethylpropanoic acid] |  |  | 1 to 25 nM | 1 to 25 nM | > 500 nM
3 | CC(C)c1ccc2c(c1)Oc1cc(Cl)ccc1N=C2N1CCN(CC(C)(C)C(=O)O)CC1 [Compound No. 2, 3-(4-(7-chloro-3-isopropyldibenzo[b,f][1,4]oxazepin-11-yl)piperazin-1-yl)-2,2-dimethylpropanoic acid] |  |  | 25 to 50 nM | 1 to 25 nM | 
4 | CCc1ccc2c(c1)Oc1cc(Cl)ccc1N=C2N1CCN(CC(C)(C)C(=O)O)CC1 [Compound No. 3, 3-(4-(7-chloro-3-ethyldibenzo[b,f][1,4]oxazepin-11-yl)piperazin-1-yl)-2,2-dimethylpropanoic acid] |  |  | 25 to 50 nM | 1 to 25 nM | 
5 | CSc1ccc2c(c1)Oc1cc(Cl)ccc1N=C2N1CCN(CC(C)(C)C(=O)O)CC1 [Compound No. 4, 3-(4-(7-chloro-3-(methylthio)dibenzo[b,f][1,4]oxazepin-11-yl)piperazin-1-yl)-2,2-dimethylpropanoic acid] |  |  | 1 to 25 nM | 1 to 25 nM | 
6 | CCCc1ccc2c(c1)Oc1cc(Cl)ccc1N=C2N1CCN(CC(C)(C)C(=O)O)CC1 [Compound No. 5, 3-(4-(7-chloro-3-propyldibenzo[b,f][1,4]oxazepin-11-yl)piperazin-1-yl)-2,2-dimethylpropanoic acid] |  |  | 25 to 50 nM | 1 to 25 nM | 
7 | Cc1ccc2c(c1)Oc1cc(C)ccc1C(N1CCN(CC3(C(=O)O)CC3)CC1)=N2 [Compound No. 9, 1-((4-(3,7-dimethyldibenzo[b,f][1,4]oxazepin-11-yl)piperazin-1-yl)methyl)cyclopropane-1-carboxylic acid] |  |  | > 50 nM | 1 to 25 nM | 
8 | O=C(O)C1(CN2CCN(C3=Nc4ccc(F)cc4Oc4cc(F)ccc43)CC2)CC1 [Compound No. 10, 1-((4-(3,7-difluorodibenzo[b,f][1,4]oxazepin-11-yl)piperazin-1-yl)methyl)cyclopropane-1-carboxylic acid] |  |  | 1 to 25 nM | 1 to 25 nM | 
9 | CC(C)(CN1CCN(C2=Nc3ccc(F)cc3Oc3cc(F)ccc32)CC1)C(=O)O [Compound No. 11, 3-(4-(3,7-difluorodibenzo[b,f][1,4]oxazepin-11-yl)piperazin-1-yl)-2,2-dimethylpropanoic acid] |  |  | > 50 nM | 1 to 25 nM | 
10 | O=C(O)C1(CN2CCN(C3=Nc4ccccc4Cc4ccccc43)CC2)CC1 [Compound No. 12, 1-((4-(11H-dibenzo[b,e]azepin-6-yl)piperazin-1-yl)methyl)cyclopropane-1-carboxylic acid] |  |  | 1 to 25 nM | > 50 nM | 
11 | Cc1ccc2c(c1)Oc1cc(Cl)ccc1N=C2N1CCN(CC2(C(=O)O)CC2)CC1 [Compound No. 13, 1-((4-(7-chloro-3-methyldibenzo[b,f][1,4]oxazepin-11-yl)piperazin-1-yl)methyl)cyclopropane-1-carboxylic acid] |  |  | 25 to 50 nM | 1 to 25 nM | 
12 | CCc1ccc2c(c1)Oc1cc(C)ccc1N=C2N1CCN(CC2(C(=O)O)CC2)CC1 [Compound No. 14, 1-((4-(3-ethyl-7-methyldibenzo[b,f][1,4]oxazepin-11-yl)piperazin-1-yl)methyl)cyclopropane-1-carboxylic acid] |  |  | > 50 nM | 1 to 25 nM | 
13 | Cc1ccc2c(c1)Oc1cc(C(F)F)ccc1N=C2N1CCN(CC(C)(C)C(=O)O)CC1 [Compound No. 16, 3-(4-(7-(difluoromethyl)-3-methyldibenzo[b,f][1,4]oxazepin-11-yl)piperazin-1-yl)-2,2-dimethylpropanoic acid] |  |  | > 50 nM | > 50 nM | 
14 | Cc1ccc2c(c1)Oc1cc(F)ccc1C(N1CCN(CC(C)(C)C(=O)O)CC1)=N2 [Compound No. 17, 3-(4-(3-fluoro-7-methyldibenzo[b,f][1,4]oxazepin-11-yl)piperazin-1-yl)-2,2-dimethylpropanoic acid] |  |  | 1 to 25 nM | 1 to 25 nM | 
15 | Cc1ccc2c(c1)Oc1cc(F)ccc1N=C2N1CCN(CC2(C(=O)O)CC2)CC1 [Compound No. 18, 1-((4-(7-fluoro-3-methyldibenzo[b,f][1,4]oxazepin-11-yl)piperazin-1-yl)methyl)cyclopropane-1-carboxylic acid] |  |  | 1 to 25 nM | 25 to 50 nM | 
16 | Cc1ccc2c(c1)Oc1cc(F)ccc1C(N1CCN(CC3(C(=O)O)CC3)CC1)=N2 [Compound No. 19, 1-((4-(3-fluoro-7-methyldibenzo[b,f][1,4]oxazepin-11-yl)piperazin-1-yl)methyl)cyclopropane-1-carboxylic acid] |  |  | 25 to 50 nM | 1 to 25 nM | 
17 | COc1ccc2c(c1)Oc1cc(Cl)ccc1N=C2N1CCN(CC(C)(C)C(=O)O)CC1 [Compound No. 20, 3-(4-(7-chloro-3-methoxydibenzo[b,f][1,4]oxazepin-11-yl)piperazin-1-yl)-2,2-dimethylpropanoic acid] |  |  | > 50 nM | 25 to 50 nM | 
18 | COc1ccc2c(c1)Oc1cc(F)ccc1N=C2N1CCN(CC(C)(C)C(=O)O)CC1 [Compound No. 21, 3-(4-(7-fluoro-3-methoxydibenzo[b,f][1,4]oxazepin-11-yl)piperazin-1-yl)-2,2-dimethylpropanoic acid] |  |  | > 50 nM | 25 to 50 nM | 
19 | CC(C)(CN1CCN(C2=Nc3ccccc3Cc3cc(F)ccc32)CC1)C(=O)O [Compound No. 37, 3-(4-(9-fluoro-11H-dibenzo[b,e]azepin-6-yl)piperazin-1-yl)-2,2-dimethylpropanoic acid] |  |  | > 50 nM | > 50 nM | > 500 nM
20 | Cc1ccc2c(c1)Cc1ccccc1C(N1CCN(CC(C)(C)C(=O)O)CC1)=N2 [Compound No. 38, 2,2-dimethyl-3-(4-(2-methyl-11H-dibenzo[b,e]azepin-6-yl)piperazin-1-yl)propanoic acid] |  |  | > 50 nM | > 50 nM | < 100 nM
21 | Cc1ccc2c(c1)Oc1ccc(F)cc1N=C2N1CCN(CC(C)(C)C(=O)O)CC1 [compound 28, 3-(4-(8-fluoro-3-methyldibenzo[b,f][1,4]oxazepin-11-yl)piperazin-1-yl)-2,2-dimethylpropanoic acid] |  |  |  |  | 100 to 500 nM
22 | Cc1ccc2c(c1)Oc1ccc(Cl)cc1N=C2N1CCN(CC(C)(C)C(=O)O)CC1 [compound 29, 3-(4-(8-chloro-3-methyldibenzo[b,f][1,4]oxazepin-11-yl)piperazin-1-yl)-2,2-dimethylpropanoic acid] |  |  |  |  | < 100 nM
23 | CC(C)(CN1CCN(C2=Nc3cc(F)ccc3Oc3cc(F)ccc32)CC1)C(=O)O [compound 31, 3-(4-(3,8-difluorodibenzo[b,f][1,4]oxazepin-11-yl)piperazin-1-yl)-2,2-dimethylpropanoic acid] |  |  |  |  | < 100 nM
24 | Cc1ccc2c(c1)N=C(N1CCN(CC(C)(C)C(=O)O)CC1)c1ccc(C(F)F)cc1O2 [compound 33, 3-(4-(3-(difluoromethyl)-8-methyldibenzo[b,f][1,4]oxazepin-11-yl)piperazin-1-yl)-2,2-dimethylpropanoic acid] |  |  |  |  | < 100 nM
25 | Cc1ccc2c(c1)C(N1CCN(CC(C)(C)C(=O)O)CC1)=Nc1cc(Cl)ccc1O2 [compound 34, 3-(4-(8-chloro-2-methyldibenzo[b,f][1,4]oxazepin-11-yl)piperazin-1-yl)-2,2-dimethylpropanoic acid] |  |  |  |  | < 100 nM
26 | COc1ccc2c(c1)C(N1CCN(CC(C)(C)C(=O)O)CC1)=Nc1cc(Cl)ccc1O2 [compound 35, 3-(4-(8-chloro-2-methoxydibenzo[b,f][1,4]oxazepin-11-yl)piperazin-1-yl)-2,2-dimethylpropanoic acid] |  |  |  |  | 100 to 500 nM
